IC50 data for 2 molecules are collected here from PMC3528345 (Cancer research, 2012).

The target of this test is PARP1 (Gallus gallus, UniProt P26446).
PARP1, sequence (P26446 whole entry): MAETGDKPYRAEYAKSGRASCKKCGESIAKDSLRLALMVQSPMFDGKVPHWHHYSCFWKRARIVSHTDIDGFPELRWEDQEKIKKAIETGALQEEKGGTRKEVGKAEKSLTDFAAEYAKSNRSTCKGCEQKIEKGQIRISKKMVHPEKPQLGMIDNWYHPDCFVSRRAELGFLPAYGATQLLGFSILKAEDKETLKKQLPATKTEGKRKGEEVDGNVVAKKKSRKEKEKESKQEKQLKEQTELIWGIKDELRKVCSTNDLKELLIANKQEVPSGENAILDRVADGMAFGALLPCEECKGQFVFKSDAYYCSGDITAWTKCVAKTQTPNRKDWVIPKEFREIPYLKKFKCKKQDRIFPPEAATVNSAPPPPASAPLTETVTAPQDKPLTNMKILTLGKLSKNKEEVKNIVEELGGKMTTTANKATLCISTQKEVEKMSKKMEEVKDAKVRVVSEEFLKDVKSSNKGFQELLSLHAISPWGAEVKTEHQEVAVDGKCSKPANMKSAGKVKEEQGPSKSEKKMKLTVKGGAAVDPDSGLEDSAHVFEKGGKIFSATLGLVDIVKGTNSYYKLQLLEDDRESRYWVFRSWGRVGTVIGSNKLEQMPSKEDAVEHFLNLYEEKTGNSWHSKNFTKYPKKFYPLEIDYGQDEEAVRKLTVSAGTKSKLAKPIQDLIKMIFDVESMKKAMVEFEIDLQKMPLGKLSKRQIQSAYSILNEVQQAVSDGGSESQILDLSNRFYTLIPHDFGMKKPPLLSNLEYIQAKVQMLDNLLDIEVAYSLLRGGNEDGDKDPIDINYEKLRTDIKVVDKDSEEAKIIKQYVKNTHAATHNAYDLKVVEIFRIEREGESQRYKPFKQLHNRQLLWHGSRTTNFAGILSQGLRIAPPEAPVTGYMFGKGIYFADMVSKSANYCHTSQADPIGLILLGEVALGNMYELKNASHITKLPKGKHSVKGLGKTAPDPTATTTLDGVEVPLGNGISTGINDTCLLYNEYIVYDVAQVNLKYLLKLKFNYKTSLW

Molecule `NC(=O)c1cccc2cn(-c3ccc([C@@H]4CCCNC4)cc3)nc12` [MK-4827] returned an IC50 of 50.5 nM.

`C[C@]1(c2nc3c(C(N)=O)cccc3[nH]2)CCCN1` [veliparib] gave a half-inhibitory concentration (IC50) of 10.5 nM.

Broadly, the IC50 is the point on the concentration scale where inhibition reaches its midpoint. Lower therefore signals higher potency.
